# Read-outs that look alike come from different tables or passages of the source.
# Experiments:
# [1] = system: Str. pyogenes A-9604; test: MIC, tube dilution, Streptococcus pyogenes A9604; assay type: cell-based; settings: Streptococcus pyogenes, A9604, Str. pyogenes A9604; overnight 37° C., Nutrient Broth; read-out: Minimum Inhibitory Concentration (M.I.C.)
# Excerpt: (§1) Representative compounds of the present invention were subjected to in vitro antibiotic screening against a variety of microorganisms.
# [2] = system: Staph. aureus A-9537 and 50% serum; test: MIC, tube dilution, Staph. aureus A9537 + 50% serum; assay type: cell-based, Staphylococcus aureus; settings: Staphylococcus aureus, overnight 37° C., read-out: Minimum Inhibitory Concentration (M.I.C.)
# Excerpt: as §1
# [3] = system: Ser. marcescens A-20019; test: MIC, tube dilution, Serratia marcescens A20019; assay type: cell-based; settings: Serratia marcescens, A20019, Serratia marcescens A20019; overnight 37° C.; read-out: Minimum Inhibitory Concentration (M.I.C.)
# Excerpt: as §1
# [4] = system: Pr. mirabilis A-9900; test: MIC, tube dilution, Proteus mirabilis A9900; assay type: cell-based; settings: Proteus mirabilis, A9900, Proteus mirabilis A9900; overnight 37° C.; read-out: Minimum Inhibitory Concentration (M.I.C.)
# Excerpt: as §1
# [5] = system: Staph. aureus A-9537; test: MIC, tube dilution, Staphylococcus aureus A9537; assay type: cell-based; settings: Staphylococcus aureus, A9537, Staph. aureus A9537; overnight 37° C., Nutrient Broth; read-out: Minimum Inhibitory Concentration (M.I.C.)
# Excerpt: as §1
# [6] = system: Str. pneumoniae A-9585; test: MIC, tube dilution, Streptococcus pneumoniae A9585; assay type: cell-based; settings: Streptococcus pneumoniae, A9585, Str. pneumoniae A9585; overnight 37° C., Nutrient Broth; read-out: Minimum Inhibitory Concentration (M.I.C.)
# Excerpt: as §1
# [7] = system: K. pneumoniae A-15130; test: MIC, tube dilution, Klebsiella pneumoniae A15130; assay type: cell-based; settings: overnight 37° C.; for MIC: Klebsiella pneumoniae, A15130, K. pneumoniae A15130, read-out: Minimum Inhibitory Concentration (M.I.C.)
# Excerpt: as §1
# [8] = system: Str. faecalis A-20688; test: MIC, tube dilution, Streptococcus faecalis A20688; assay type: cell-based; settings: overnight 37° C.; for MIC: Enterococcus faecalis, A20688, Str. faecalis A20688, read-out: Minimum Inhibitory Concentration (M.I.C.)
# Excerpt: as §1
# [9] = system: Ent. cloacae A-9659; test: MIC, tube dilution, Enterobacter cloacae A9659; assay type: cell-based; settings: overnight 37° C.; for Minimum Inhibitory Concentration (M.I.C.): Enterobacter cloacae A9659; for MIC: Enterobacter cloacae, A9659, Enterobacter cloacae A9659, read-out: Minimum Inhibitory Concentration (M.I.C.)
# Excerpt: as §1
# [10] = system: Proteus vulgaris A21559; test: MIC, tube dilution, Proteus vulgaris A21559; assay type: cell-based; settings: Proteus vulgaris, A21559, Proteus vulgaris A21559; overnight 37° C.; read-out: Minimum Inhibitory Concentration (M.I.C.)
# Excerpt: as §1
# [11] = system: Ps. aeruginosa A-9843A; test: MIC, tube dilution, Pseudomonas aeruginosa A9843A; assay type: cell-based; settings: overnight 37° C.; for MIC: Pseudomonas aeruginosa, A9843A, read-out: Minimum Inhibitory Concentration (M.I.C.), Pseudomonas aeruginosa A9843A
# Excerpt: as §1
# [12] = system: Proteus rettgeri A21203; test: MIC, tube dilution, Proteus rettgeri A21203; assay type: cell-based; settings: Providencia rettgeri, A21203, Proteus rettgeri A21203; overnight 37° C.; read-out: Minimum Inhibitory Concentration (M.I.C.)
# Excerpt: as §1
# [13] = system: Staph. aureus (Pen-Res) A-9606; test: MIC, tube dilution, Staphylococcus aureus A9606 (Pen-Res); assay type: cell-based; settings: Staphylococcus aureus, Staph. aureus A9606 (Pen-Res); overnight 37° C.; read-out: Minimum Inhibitory Concentration (M.I.C.)
# Excerpt: as §1
# [14] = Mouse blood levels after intramuscular administration; assay type: in vivo; settings: average of 6 mice, read-out: Mouse blood level; for concentration at 10 min: 10 minutes after IM 40 mg/kg; for concentration at 20 min: 20 minutes after IM 40 mg/kg; for concentration at 0.5 h: 30 minutes after IM 40 mg/kg; for concentration at 0.75 h: 45 minutes after IM 40 mg/kg; for concentration at 1 h: 60 minutes after IM 40 mg/kg; for concentration at 1.5 h: 90 minutes after IM 40 mg/kg; for concentration at 2 h: 120 minutes after IM 40 mg/kg
# Description: Mouse blood levels after intramuscular administration of representative compounds of the present invention were determined and are reported in the table below.
# [15] = system: Pr. morganii A-15153; test: MIC, tube dilution, Proteus morganii A15153; assay type: cell-based; settings: Morganella morganii, A15153, Proteus morganii A15153; overnight 37° C.; read-out: Minimum Inhibitory Concentration (M.I.C.)
# Excerpt: as §1
# [16] = system: S. aureus A9537; test: In vivo protection of mice, lethal infection with S. aureus A9537; settings: Staphylococcus aureus, A9537, im, IM, 2 treatments, read-out: PD50
# Description: Representative compounds of the present invention were also tested in vivo in mice and their PD50 (dose of compound in mg/kg required to protect 50% of the treated mice against an otherwise lethal infection of a micro-organism) values determined with respect to the test organisms shown below.
# [17] = system: Ent. cloacae A-9656; test: MIC, tube dilution, Enterobacter cloacae A9656; assay type: cell-based; settings: overnight 37° C.; for MIC: Enterobacter cloacae, A9656, Enterobacter cloacae A9656, read-out: Minimum Inhibitory Concentration (M.I.C.)
# Excerpt: as §1
# [18] = system: Ps. aeruginosa A-21213; test: MIC, tube dilution, Pseudomonas aeruginosa A21213; assay type: cell-based; settings: overnight 37° C.; for MIC: read-out: Minimum Inhibitory Concentration (M.I.C.)
# Excerpt: as §1
# [19] = system: E. coli A-20341-1; test: MIC, tube dilution, Escherichia coli A20341-1; assay type: cell-based
# Excerpt: as §1
# [20] = system: Klebsiella species A20468; test: MIC, tube dilution, Klebsiella species A20468; assay type: cell-based; settings: Klebsiella species (K. pneumoniae) A20468; overnight 37° C.; read-out: Minimum Inhibitory Concentration (M.I.C.)
# Excerpt: as §1
# [21] = system: E. coli A-15119; test: MIC, tube dilution, Escherichia coli A15119; assay type: cell-based; settings: overnight 37° C.; for MIC: Escherichia coli, A15119, E. coli A15119, read-out: Minimum Inhibitory Concentration (M.I.C.)
# Excerpt: as §1
# [22] = system: Staph. aureus (Meth-Res) A-15097; test: MIC, tube dilution, Staphylococcus aureus A15097 (Meth-Res); assay type: cell-based; settings: Staph. aureus A15097 (Meth-Res), overnight 37° C.
# Excerpt: as §1
# [23] = system: Pr. vulgaris A-9716; test: MIC, tube dilution, Proteus vulgaris / Proteus mirabilis A9716; assay type: cell-based, Proteus vulgaris (name changed to Proteus mirabilis); settings: Proteus vulgaris, A9716, Proteus vulgaris / Proteus mirabilis A9716; overnight 37° C.; read-out: Minimum Inhibitory Concentration (M.I.C.)
# Excerpt: as §1
# [24] = Pseudomonas aeruginosa, A21213, Pseudomonas aeruginosa A21213
# [25] = Escherichia coli, A203411, E. coli A20341-1; overnight 37° C.; read-out: Minimum Inhibitory Concentration (M.I.C.)
Structure (SMILES),MIC [1] [µg/mL],MIC [2] [µg/mL],MIC [3] [µg/mL],MIC [4] [µg/mL],MIC [5] [µg/mL],MIC [6] [µg/mL],MIC [7] [µg/mL],MIC [8] [µg/mL],MIC [9] [µg/mL],MIC [10] [µg/mL],MIC [11] [µg/mL],MIC [12] [µg/mL],MIC [13] [µg/mL],concentration at 10 min [14] [ng/mL],concentration at 20 min [14] [ng/mL],concentration at 0.5 h [14] [ng/mL],concentration at 0.75 h [14] [ng/mL],concentration at 1 h [14] [ng/mL],MIC [15] [µg/mL],MIC [20] [µg/mL],other results
"C[C@@H](O)[C@H]1C(=O)N2C(C(=O)O)=C([C@H]3C[C@H](N)C3)S[C@H]12 (relative stereo) [Example 65, (1""R,5R,6S and 1'S,5S,6R)-2-(trans-3'-Amino-1'-cyclobutyl)-6-(1""-hydroxy-1""-ethyl)penem-3-carboxylic Acid (isomer B)]",0.004,0.06,0.5,< 0.25,0.008,0.004,< 0.25,0.5,4,< 0.25,16,< 0.25,0.06,44700,34400,23700,17600,9800,1,0.5,"Minimum Inhibitory Concentration (M.I.C.) [9]: 2 µg/mL; concentration at 1.5 h [14]: 3600 ng/mL; concentration at 2 h [14]: 1000 ng/mL; ED50 ([16]; 7.8 × 10^5 organisms): 0.12 mg/kg; MIC [17]: 0.5 µg/mL; Minimum Inhibitory Concentration (M.I.C.) ([18]; Pseudomonas aeruginosa A21213): 63 µg/mL; MIC [18, 24]: 125 µg/mL; MIC [19, 25]: < 0.25 µg/mL; MIC [21]: 0.13 µg/mL"
"NCCCC1=C(C(=O)O)N2C(=O)CC2S1 (centres unmarked) [Example 22, Sodium 2-Aminopropylpenem-3-carboxylate]",2,63,32,16,2,0.25,32,–,16,–,125,16,63,36500,39900,31500,16500,11500,32,> 125,"Minimum Inhibitory Concentration (M.I.C.) [22]: 125 µg/mL; Minimum Inhibitory Concentration (M.I.C.) ([8]; Str. faecalis A20688): 125 µg/mL; concentration at 1.5 h [14]: 5700 ng/mL; concentration at 2 h [14]: 3100 ng/mL; ED50 ([16]; 1.1 × 10^6 organisms): 0.63 mg/kg; MIC [17]: 32 µg/mL; MIC ([18]; Pseudomonas aeruginosa A21213): 125 µg/mL; MIC ([19]; Escherichia coli, A203411; E. coli A20341-1; overnight 37° C.; read-out: Minimum Inhibitory Concentration (M.I.C.)): 125 µg/mL; MIC [21]: 16 µg/mL; MIC [23]: 16 µg/mL"
"NCCOCC1=C(C(=O)O)N2C(=O)CC2S1 (centres unmarked) [Example 86, 2-(2-Aminoethoxymethyl)penem-3-carboxylic Acid]",0.13,1,2,2,0.13,0.13,4,32,8,8,63,2,32,36000,26300,16500,7500,4000,8,> 125,"MIC ([22]; Staphylococcus aureus, read-out: Minimum Inhibitory Concentration (M.I.C.)): 125 µg/mL; concentration at 1.5 h [14]: < 3100 ng/mL; concentration at 2 h [14]: < 3100 ng/mL; ED50 ([16]; 1 × 10^6 organisms): 1.9 mg/kg; MIC [17]: 4 µg/mL; MIC [18, 24]: 125 µg/mL; MIC [19, 25]: 8 µg/mL; MIC [21]: 2 µg/mL"
"NCCCCCC1=C(C(=O)O)N2C(=O)C[C@H]2S1 [Example 87, 2-(5-Aminopentyl)-penem-3-carboxylic acid]",0.008,0.13,2,4,0.016,0.008,–,8,–,16,–,4,4,50300,47300,34600,23300,–,4,> 125,"Minimum Inhibitory Concentration (M.I.C.) [22]: 32 µg/mL; Minimum Inhibitory Concentration (M.I.C.) ([7]; K. pneumoniae A15130): 8 µg/mL; Minimum Inhibitory Concentration (M.I.C.) [9]: 16 µg/mL; Minimum Inhibitory Concentration (M.I.C.) ([11]; Pseudomonas aeruginosa A9843A): 32 µg/mL; ED50 ([16]; 1 × 10^6 organisms): 0.12 mg/kg; Minimum Inhibitory Concentration (M.I.C.) ([17]; Enterobacter cloacae A9656): 8 µg/mL; MIC [18, 24]: > 125 µg/mL; MIC [19, 25]: 16 µg/mL; Minimum Inhibitory Concentration (M.I.C.) ([21]; E. coli A15119): 4 µg/mL"

# — patent US4272437A, “Antibacterial agents, and 4-thio azetidinone intermediates” (priority 1979, dated 1981)
